These are literature values, as cited in publication PMC6591635, “Advancing the Therapeutic Potential of Indoleamides for Tuberculosis” (Antimicrobial Agents and Chemotherapy, 2019).

≈ marks a conversion by molar mass, not a printed value.

The data set has as its system M. tuberculosis H37Rv. Conditions: M. tuberculosis H37Rv; concentration used as 1× MIC; cited from earlier work.

Take `Cc1cc(C)c2cc(C(=O)NC3CCCCCCC3)[nH]c2c1` [compound 1]: the “MIC (1× MIC)” value was 4 ng/mL (≈ 0.0134 µM).
